Laboratory results taken from patent publication US6815450B2, “Axon regeneration with PKC inhibitors” (Children's Medical Center Corporation, priority 2002, dated 2004).
Structures can show the parent of a compound that is named as a salt. Residues, ends and D or L forms follow the SMILES beside them. *: point of attachment. Cbz = O=C(OCc1ccccc1)*; CH2F = FC*

Legend:
protein kinase C = conditions: cited from earlier work
[1] = system: P7 rat CGNs injected into the ventral funiculus of the adult rat spinal cord; assay: intra white matter transplantation of CGNs; assay type: in vivo; conditions: two weeks after transplantation; CGNs pretreated with 50 nM
Method: We thus injected vehicle or Gö6976-treated P7 rat CGNs into the ventral funiculus of the adult rat spinal cord and examined neurite outgrowth of these transplanted neurons within the white matter that is largely composed of myelinated axons (26).
26. Intra white matter transplantation of CGNs. P7 CGN (50,000 cells/ml) were prelabeled with Cell Tracker CM-DiI (1 mM; Molecular Probes, Eugene, Oreg.), pretreated with PBS or 50 nM Gö6976, and microinjected at the level of T9 into the spinal cord ventral funiculus of adult Sprague-Dawley rats ([…]; N=3 for each group). Two pieces of 2 mm^3 gelfoam (Pharmacia & Upjohn, Kalamazoo, Mich.) soaked with PBS or 500 nM Gö6976 were placed onto the spinal dura where the penetration for cell injection occurred. Spinal cords (8 mm in length centered around the CGN injection site) were collected 2 weeks after surgery, and […] sagittal sections were made. DiI positive CGNs were examined with a fluorescent microscope (Omega XF-32 optical filter) in all sections of each cord to evaluate cell survival (27). Percentages of the neurite-bearing CGNs and CGNs with neurites longer than twice the soma length were quantified among 400 CGNs from a single […] of each cord that had the highest number of neurite-bearing CGNs.

[2] = system: CGNs on MAG, Nogo-A and OMgp; assay: neurite outgrowth on individual myelin inhibitors; assay type: cell-based, rat
Method: […] Based on their structure and substrate requirements, PKC isoforms can be divided into three classes: the Ca++ and second messenger diacylglycerol (DAG)-sensitive conventional PKCs (-α, -β, and -γ), the Ca++-independent but DAG-dependent novel PKCs (-δ, -ε, -η, -θ, and -μ), and the Ca++- and DAG-insensitive atypical PKCs (-ζ and -λ). […] These inhibitors included Chelerythrine, Calphostin, Bisindoleylmaleimide I, and Gö6976. Dose response experiments (in the range of 10 nM to 10 uM) were carried out for each PKC inhibitor.

[3] = system: CGNs, DRG sensory neurons or NG108 cells on immobilized CNS myelin; assay: neurite outgrowth assay on CNS myelin substrate; assay type: cell-based, rat; conditions: for neurite outgrowth on immobilized CNS myelin: P7-9 rat CGNs and DRG sensory neurons; for neurite outgrowth on a CNS myelin substrate: 100 nM
Method: (§1) To assess the functional relevance of the activation of the PI3K, MEK and PLC-g pathways, we utilized a standard neurite outgrowth assay in which NG108 cells or cerebellar granule neurons (CGN) from postnatal day 7-9 (P7-9) rats were grown on immobilized recombinant MAG or myelin (5-10, 16). Pharmacological inhibitors of the individual pathways—LY294002 and wortmannin for PI3K, U0126 for MEK, and U73122 for PLC-g, were then added to assess whether and to what extent these inhibitors could overcome the inhibitory activity of MAG or of myelin. […] As MEK has been previously shown to be required for axon growth induced by chronic exposure to neurotrophins (14), but not for growth cone turning in acute responses to NGF gradients (12), our results of abolishing MAG inhibition by an MEK inhibitor imply that the MEK pathway can be required only for neurite outgrowth in response to external cues.
Based on the modulation of neurite outgrowth by modulating PKC activity, we predicted that inhibiting PKC activity might abolish or convert the inhibitory responses of neurons to MAG and other myelin-associated inhibitors. […] Based on existing evidence for the functional interactions between the PKA and PKC pathways (24), we conclude that both PKA and PKC act through parallel mechanisms in affecting neurite outgrowth. Although many PKC isoforms are expressed in the nervous system (25), our observations with phorbol ester and selective PKC inhibitors indicate the involvement of at least classical PKC isoforms whose activation is dependent on diacylglycerol (DAG) and calcium (24).
Screening for compounds that allow neurite outgrowth from postnatal day 7-9 rat cerebellar granule neurons (CGNs) on CNS myelin substrates, we identified several broad-specificity PKC inhibitors from a small molecule libraries. Based on their structure and substrate requirements, PKC isoforms can be divided into three classes: the Ca++ and second messenger diacylglycerol (DAG)-sensitive conventional PKCs (-α, -β, and -γ), the Ca++-independent but DAG-dependent novel PKCs (-δ, -ε, -η, -θ, and -μ), and the Ca++- and DAG-insensitive atypical PKCs (-ζ and -λ). We first examined PKC inhibitors with a higher specificity for the conventional class of PKC isotypes for their ability to promote neurite outgrowth on CNS myelin. These inhibitors included Chelerythrine, Calphostin, Bisindoleylmaleimide I, and Gö6976. Dose response experiments (in the range of 10 nM to 10 uM) were carried out for each PKC inhibitor.

RhoA = RhoA pull down assay in stimulated CGNs; assay type: cell-based, rat; conditions: cultured CGNs
Description: We also assessed whether individual inhibitors affect endogenous PKC activity in treated neurons. […] To further confirm the role of PKC as a direct signaling mediator, we examined whether PKC activation by myelin inhibitors is dependent on NgR, a required receptor component for all of the three major myelin inhibitors. Thus, we used recombinant retroviruses to overexpress full-length or dominant negative NgR in CGNs and examined PKC activation in these transduced neurons by NgR ligands. […] An additional and critical signaling event shared by these inhibitory activities is the activation of the small GTPase RhoA. In order to determine the relationship between PKC and RhoA in these pathways, we stimulated cultured CGNs with MAG-Fc, AP-Nogo-66 or CSPG in the presence or absence of Gö6976 and examined the RhoA activation in these conditions by subjecting the resulting cell lysates to a RhoA pull down assay. […] Thus, conventional PKCs participate in transducing the inhibitory signals of both myelin inhibitors and CSPG from their specific cell surface receptors to activate RhoA.

[4] = system: dorsal column ascending axons; assay: dorsal column axonal regeneration after C3-4 spinal dorsal hemisection; assay type: in vivo, adult rats
Method: To assess the contribution of PKC mediated inhibitory effects on axon regeneration in vivo, we examined whether intrathecal infusion of Gö6976 affected regeneration of dorsal column ascending axons following spinal cord dorsal hemisection in adult rats. The hemisection was performed between the 3rd and 4th cervical spinal segments (C3-4) to a depth of 1.6 mm from the dorsal surface of the cord using a VibraKnife device that can be used to precisely control the lesion depth stereotaxically. To ensure that bilateral dorsal columns were completely transected, the lesion was advanced ventrally to the level of central cannel resulting in the transection of the entire dorsal half of the spinal cord. After the lesion, dura mater was sutured to restore cerebespinal fluid circulation and to prevent connective tissue invasion. Intrathecal delivery of Gö6976 (20 uM) or saline vesicle into the lesion site was achieved by constant infusion of the compound at a rate of 0.5 ul/hr for 14 days using an Alzet mini-osmotic pump (Model 2002). Five weeks after surgery, a narrow lesion gap through the dorsal half of the cord was clearly seen, confirming the completeness of dorsal column transection. […] Anatomical regeneration of injured dorsal column axons was assessed by anterograde tracing of Cholera toxin B subunit (CTB) which was injected into bilateral sciatic nerves and brachial plexuses.

[5] = system: NG108 cells and CGNs transfected with Akt forms; assay: neurite outgrowth of Akt-transfected cells; assay type: cell-based, rat; parameters: effect on pro-growth effect of dominant negative Akt / cell survival / process extension of constitutively active Akt expressing NG108 cells: unit of the concentration uncertain
Description: Having determined that the PI3K pathway is both activated and required in MAG signaling, we next examined whether Akt, a major downstream effector of PI3K in promoting cell survival (13, 17) and in determining the directionality of cell movement during chemotaxis (18), could account for the neurite inhibitory effect of MAG. To this end, we transfected NG108 cells with three versions of the Akt product—a constitutive active, a dominant negative and a wild type form (19), and compared their effects on neurite outgrowth.
Since Akt has been thought of as a positive regulator of neurite outgrowth (21), our results with over-expression of constitutively active Akt came as a surprise. […] However, expression of dominant negative Akt led to the death of the transfected CGNs, consistent with a critical role of Akt in promoting cell survival (13, 17 and 19). Thus, the neurite outgrowth response elicited by Akt activation differs in a cell type specific manner.
Growth cone responses can be converted from attraction to repulsion and vice versa through the modification of cellular cyclic nucleotide levels (12, 16, 23). […] As the PLCg pathway is activated by MAG and PKC is a major effector of PLCg (15), we assessed whether changes in PKC activity could affect the activity of different forms of Akt in NG-108 cells on the PDL substrate.

[6] = system: NG108 cells or cerebellar granule neurons (CGN) on immobilized recombinant MAG; assay: neurite outgrowth assay on immobilized recombinant MAG; assay type: cell-based, rat
Method: as §1

NG108 cells and CGNs = assay: toxicity to cultured neuronal cells; assay type: cell-based, rat; conditions: even at 100 nM
Method: as §1

[7] = system: CGNs, DRG sensory neurons or NG108 cells on immobilized CNS myelin; conditions: previously shown; cited from earlier work
[8] = system: neurons on CSPG substrate; assay: neurite outgrowth on CSPG substrate; assay type: cell-based, rat
Description: We examined whether PKC is involved in the inhibitory activity of CSPG, the other major inhibitory activity associated with glial scars in the adult CNS.

[9] = NG-108 cells, 10 (unit uncertain)

Compound: CC1CNCCN1S(=O)(=O)c1cccc2cnccc12 (racemic) [compound 542, (+−)-1-(5-Isoquinolinesulfonyl)-2-methylpiperazine dihydrochloride]
- IC50 (protein kinase C): 6 µM

Compound: Cn1c2ccccc2c2c3c(c4c5ccccc5n(CCC#N)c4c21)CNC3=O [Gö6976]
- donor neurons bearing neurites [1]: 85%
- neurite-bearing neurons with neurites longer than twice their soma diameters [1]: 80%
- neurite outgrowth inhibition induced by MAG, Nogo-A and OMgp [2]: efficiently overcame neurite outgrowth inhibition
- neurite outgrowth on immobilized CNS myelin [3]: profoundly affected neurite outgrowth by enhancing both the number of neurite-bearing cells and the length of neurites
- neurite outgrowth on a CNS myelin substrate ([3]; P7-9 rat CGNs): profoundly mitigated outgrowth inhibition and promoted significant neurite outgrowth
- MAG-Fc, AP-Nogo-66 and CSPG induced RhoA activation (RhoA): blocked MAG-Fc, AP-Nogo-66 and CSPG induced RhoA activation in a dose dependent manner
- regeneration of CTB-labeled dorsal column axons across the lesion ([4]; 20 uM intrathecal, 0.5 ul/hr for 14 days, five weeks after surgery): CTB-labeled axons were seen to cross the lesion gap and grow within the distal host spinal cord for a considerable distance
- distance distal to the injury at which many regenerated axons ended ([4]; 20 uM intrathecal, 0.5 ul/hr for 14 days, longest distance examined): 7 mm
- functional connections and recovery ([4]; subsequent studies): improves physiological and behavioral recovery

Compound: CCCCCCCCCCCCCC(=O)O[C@@H]1[C@@H](C)[C@@]2(O)[C@@H](C=C(CO)C[C@]3(O)C(=O)C(C)=C[C@@H]23)[C@@H]2C(C)(C)[C@]12OC(C)=O [PMA, phorbol myristate-13-acetate]
- neurite outgrowth from untransfected cells and wild type Akt transfected cells [5]: did not result in significant alterations in neurite outgrowth
- neurite outgrowth promoting activity of active Akt in CGNs ([5]; CGNs): abolished the neurite outgrowth promoting activity of active Akt
- neurite outgrowth from NG108 cells expressing dominant negative Akt ([5]; PDL substrate, 100 nM): resulted in inhibition of neurite outgrowth

Compound: Nc1nc2c(nc(Br)n2[C@@H]2O[C@@H]3COP(O)(=S)O[C@H]3[C@H]2O)c(=O)[nH]1 (some centres unmarked) [Rp-8-Br-cGMPS]
- neurite outgrowth on CNS myelin substrate ([3]; P7-9 rat CGNs): failed to overcome the inhibitory effects of CNS myelin

Compound: N#CC(=C(/N)Sc1ccccc1N)/C(C#N)=C(\N)Sc1ccccc1N [U0126]
- neurite outgrowth on the MAG substrate [6]: promoted neurite outgrowth

Compound: COc1ccc2c(c1)CC[C@@H]1[C@@H]2CC[C@]2(C)[C@@H](NCCCCCCN3C(=O)C=CC3=O)CC[C@@H]12 [U73122]
- toxicity to cells (NG108 cells and CGNs): appeared toxic

Compound: C[C@@H](N)[C@H]1CC[C@H](C(=O)Nc2ccncc2)CC1 [Y-27632]
- block of the inhibitory activity of CNS myelin and its components [7]: block the inhibitory activity of CNS myelin and its components
- effect on CSPG substrate relative to chondroitinase ABC [8]: stronger effects than chondroitinase ABC
- neurite outgrowth from neurons on CSPG substrate [8]: allowed the cultured neurons to overcome the inhibitory activity of CSPG

Compound: CC(NC(=O)C(NC(=O)OCc1ccccc1)C(C)C)C(=O)NC(CC(=O)O)C(=O)CF (stereo not drawn) [ZVAD] (Cbz-Val-Ala-Asp-CH2F; configuration not given here)
- cell survival [5, 9]: enhancing cell survival
- effect on pro-growth effect of dominant negative Akt [5, 9]: did not affect the pro-growth effect of the dominant negative form of Akt

Compound: O=S(=O)(c1cccc2cnccc12)N1CCNCC1 [compound 543, 1-(5-Isoquinolinesulfonyl)piperazine]
- IC50 (protein kinase C): 6 µM

Compound: Nc1ncnc2c1ncn2[C@@H]1O[C@@H]2COP(O)(=S)O[C@H]2[C@H]1O (some centres unmarked) [sp-cAMP]
- neurite outgrowth on immobilized CNS myelin [3]: stimulated neurite outgrowth

Compound: bisindolylmaleimide [GFX]
- neurite outgrowth on immobilized CNS myelin [3]: profoundly affected neurite outgrowth by enhancing both the number of neurite-bearing cells and the length of neurites
- neurite outgrowth from untransfected cells and wild type Akt transfected cells [5]: did not result in significant alterations in neurite outgrowth
- process extension of constitutively active Akt expressing NG108 cells ([5]; PDL substrate, 5 (unit uncertain)): the majority of constitutively active Akt expressing NG108 cells extended processes

Compound: calphostin C
- neurite outgrowth inhibition induced by MAG, Nogo-A and OMgp [2]: efficiently overcame neurite outgrowth inhibition
- neurite outgrowth on immobilized CNS myelin [3]: profoundly affected neurite outgrowth by enhancing both the number of neurite-bearing cells and the length of neurites
- neurite outgrowth on a CNS myelin substrate ([3]; P7-9 rat CGNs): profoundly mitigated outgrowth inhibition and promoted significant neurite outgrowth
